Test results reported in patent US12145914B2, “Compound having oxadiazole and pharmaceutical composition containing the same” (SK BIOPHARMACEUTICALS CO., LTD., priority 2018, dated 2024).

tested on: focal onset seizures induced by electrostimulation of 44 mA, 6 Hz, 3 sec in ICR mouse; assay: 6 Hz method for screening anticonvulsants (6 Hz, 44 mA electrostimulation); type: in vivo; conditions: male ICR mice, intraperitoneal (ip), electrostimulation 44 mA, 3 sec to the eye, number of non-seizure animals/number of animals used
Excerpt: The utility of the compounds according to the present invention as an anticonvulsant agent has been investigated by the 6 Hz method, which has been well established as pharmacological screening methods of convulsant agents for focal onset seizures. The procedure of the 6 Hz method for screening anticonvulsant was as follows:
1) Preparation of Experimental Animals
Male ICR mice are purchased from Orient Bio, Inc. of Korea, and are stored and managed according to laboratory animal management standards of the Institutional Animal Care and Use Committee (IACUC) by putting the same in a wire net cage under an environment in which an ambient temperature of 19 to 25° C., 40 to 60% relative humidity and 12 hour periods of light/dark were auto-controlled, and water was freely taken. After stabilization for a week, mice with a body weight of 18 to 23 g were used in the experiment.
2) Evaluation of the Anticonvulsant Effect of a Compound
5% Tetracaine (Sigma) was added to both eyes to provide a local anesthetic effect at 5 to 10 minutes before the period of electrical stimulation at the animal ICR mouse. The compounds to be tested were dissolved in distilled water in which 30% polyethylene glycol 300+5% dimethylsulfoxide+5% Cremophor was dissolved and administered intraperitoneally (ip) to the animal at a dosage volume of 10 mL/kg. Then, electrostimulation of 44 mA, 6 Hz, and 3 sec was applied to the eye to induce focus-generating seizures. After the electrical stimulation, the presence of seizures due to drug effects was confirmed, and the ratio of animals showing no seizures was expressed as a protection rate (the number of non-seizure animals/the number of animals used in experiments=protection rate). […]

SMILES | 6 Hz, 44 mA protection rate
CCCCCc1ccc(F)c(C(Cc2nnc(C)o2)OC(N)=O)c1 (stereo not drawn) [Example 28, [1-(2-fluoro-5-pentyl-phenyl)-2-(5-methyl-1,3,4-oxadiazol-2-yl)ethyl] carbamate] | ++ (0.6 to 0.8 are scored as ‘++’)
CC(=O)OC(Cc1nnc(C)o1)c1cccc(-c2ccc(C(F)(F)F)cc2)c1 (stereo not drawn) [Example 55, [2-(5-methyl-1,3,4-oxadiazol-2-yl)-1-[3-[4-(trifluoromethyl)phenyl]phenyl]ethyl]acetate] | + (0.2 to 0.6 are scored as ‘+’)
Cc1nnc(CC(O)c2cccc(OCCCC(F)(F)F)c2)o1 (stereo not drawn) [Example 19, 2-(5-methyl-1,3,4-oxadiazol-2-yl)-1-[3-(4,4,4-trifluorobutoxy)phenyl]ethanol] | + (0.2 to 0.6 are scored as ‘+’)
OC(Cc1nnco1)c1cccc(-c2ccc(C(F)(F)F)cc2)c1 (stereo not drawn) [Example 52, 2-(1,3,4-oxadiazol-2-yl)-1-[3-[4-(trifluoromethyl)phenyl]phenyl]ethanol] | + (0.2 to 0.6 are scored as ‘+’)
Cc1nnc(CC(OC(N)=O)c2cc(CCC(F)(F)F)ccc2F)o1 (stereo not drawn) [Example 11, [1-[2-fluoro-5-(3,3,3-trifluoropropyl)phenyl]-2-(5-methyl-1,3,4-oxadiazol-2-yl)ethyl] carbamate] | + (0.2 to 0.6 are scored as ‘+’)
Cc1nnc(CC(OC(N)=O)c2cc(OCC(F)(F)F)ccc2F)o1 (stereo not drawn) [Example 18, [1-[2-fluoro-5-(2,2,2-trifluoroethoxy)phenyl]-2-(5-methyl-1,3,4-oxadiazol-2-yl)ethyl] carbamate] | + (0.2 to 0.6 are scored as ‘+’)
